Experimental data from article PMC9785231, “Synthesis and Pharmacological Evaluation of Enantiopure N-Substituted Ortho-c Oxide-Bridged 5-Phenylmorphans” (Molecules, 2022).
Structures can show the parent of a compound that is named as a salt.

Assays:
[1] = target: T1, μ-opioid receptor (MOR) (Rattus norvegicus, UniProt P33535); assay: Opioid receptor binding, MOR ([3H]DAMGO), rat brain homogenate; settings: for Ki: [3H]DAMGO, whole rat brains excluding cerebellum, read-out: MOR Binding (Ki ± SEM); for MOR Binding, activity in exploratory binding assays: 100 nM concentration, displacement of radioligand
T1 construct: All assay tubes contained 100 μL homogenate suspension; from tissue; host or cells: whole rat brain excluding cerebellum, membrane homogenate

[2] = target: T2, δ-opioid receptor (DOR) (Rattus norvegicus, UniProt P33533); assay: Opioid receptor binding, DOR ([3H]DADLE), rat brain homogenate; settings: for DOR Binding, activity in exploratory binding assays: 100 nM concentration, displacement of radioligand
T2 construct: All assay tubes contained 100 μL homogenate suspension; from tissue; host or cells: whole rat brain excluding cerebellum, membrane homogenate

[3] = target: T3, κ-opioid receptor (KOR) (Rattus norvegicus, UniProt P34975); assay: Opioid receptor binding, KOR ([3H]U69,593), rat brain homogenate; settings: for Ki: [3H]U69,593, whole rat brains excluding cerebellum, read-out: KOR Binding (Ki ± SEM); for KOR Binding, activity in exploratory binding assays: 100 nM concentration, displacement of radioligand
T3 construct: All assay tubes contained 100 μL homogenate suspension; from tissue; host or cells: whole rat brain excluding cerebellum, membrane homogenate
T3 sequence (P34975 whole entry): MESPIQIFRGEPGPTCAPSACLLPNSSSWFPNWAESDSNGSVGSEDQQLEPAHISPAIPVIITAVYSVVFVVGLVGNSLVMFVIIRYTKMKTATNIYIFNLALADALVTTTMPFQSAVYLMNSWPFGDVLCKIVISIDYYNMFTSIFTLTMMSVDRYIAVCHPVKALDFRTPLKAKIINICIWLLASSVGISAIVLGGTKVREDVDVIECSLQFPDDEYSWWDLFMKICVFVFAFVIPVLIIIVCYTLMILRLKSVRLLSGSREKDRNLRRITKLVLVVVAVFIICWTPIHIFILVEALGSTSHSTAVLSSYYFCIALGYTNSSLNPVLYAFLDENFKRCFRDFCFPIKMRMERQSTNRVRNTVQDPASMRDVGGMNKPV

T1 sequence (P33535 whole entry): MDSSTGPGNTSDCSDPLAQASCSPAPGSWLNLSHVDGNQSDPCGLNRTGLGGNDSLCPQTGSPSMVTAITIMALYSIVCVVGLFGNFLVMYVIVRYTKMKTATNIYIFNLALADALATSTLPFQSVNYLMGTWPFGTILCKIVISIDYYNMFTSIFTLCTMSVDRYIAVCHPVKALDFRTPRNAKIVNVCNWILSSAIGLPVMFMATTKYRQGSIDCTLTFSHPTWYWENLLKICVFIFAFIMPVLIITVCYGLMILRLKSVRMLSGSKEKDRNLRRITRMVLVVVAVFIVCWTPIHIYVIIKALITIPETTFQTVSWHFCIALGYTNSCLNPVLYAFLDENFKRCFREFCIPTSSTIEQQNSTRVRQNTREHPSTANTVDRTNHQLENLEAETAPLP
T2 sequence (P33533 whole entry): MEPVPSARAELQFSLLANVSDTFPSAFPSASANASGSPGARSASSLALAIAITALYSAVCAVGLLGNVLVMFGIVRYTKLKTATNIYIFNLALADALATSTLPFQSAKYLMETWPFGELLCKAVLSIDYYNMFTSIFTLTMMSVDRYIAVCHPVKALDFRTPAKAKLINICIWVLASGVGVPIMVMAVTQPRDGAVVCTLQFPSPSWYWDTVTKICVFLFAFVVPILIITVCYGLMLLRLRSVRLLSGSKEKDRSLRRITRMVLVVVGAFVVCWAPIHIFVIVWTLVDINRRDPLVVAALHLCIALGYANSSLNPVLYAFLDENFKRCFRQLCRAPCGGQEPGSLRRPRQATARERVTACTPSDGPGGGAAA

| Structure (SMILES) | DOR Binding, activity in exploratory binding assays [2] | melting point [°C] | KOR Binding, activity in exploratory binding assays [3] | other results |
| --- | --- | --- | --- | --- |
| Oc1cccc2c1O[C@H]1CN(C[C@H]3C[C@H]3c3ccccc3)[C@H]3CCC[C@@]21C3 [(+)-19, (3S,6aR,11aR)-2-(((1S,2R)-2-Phenylcyclopropyl)methyl)-1,3,4,5,6,11a-hexahydro-2H-3,6a-methanobenzofuro[2,3-c]azocin-10-ol] | NT (NT = not tested—inactive (<50% activity at 100 nM concentration in exploratory binding assays (displaced less than half of radioligand)) |  |  | Ki [1]: 52.4 ± 5.1 nM; Ki [3]: 67.3 ± 7.9 nM |
| Oc1cccc2c1O[C@H]1CN(C[C@@H]3C[C@H]3c3ccccc3)[C@H]3CCC[C@@]21C3 (as salt: HCl) [(-)-16, (3S,6aR,11aR)-2-(((1R,2R)-2-Phenylcyclopropyl)methyl)-1,3,4,5,6,11a-hexahydro-2H-3,6a-methanobenzofuro[2,3-c]azocin-10-ol] |  | 252.7 to 256.5 |  |  |
| Oc1cccc2c1O[C@@H]1CN(C[C@H]3C[C@@H]3c3ccccc3)[C@@H]3CCC[C@]21C3 [(+)-16, (3R,6aS,11aS)-2-(((1S,2S)-2-Phenylcyclopropyl)methyl)-1,3,4,5,6,11a-hexahydro-2H-3,6a-methanobenzofuro[2,3-c]azocin-10-ol] | NT (NT = not tested—inactive (<50% activity at 100 nM concentration in exploratory binding assays (displaced less than half of radioligand)) |  | NT (NT = not tested—inactive (<50% activity at 100 nM concentration in exploratory binding assays (displaced less than half of radioligand)) | MOR Binding, activity in exploratory binding assays [1]: NT (NT = not tested—inactive (<50% activity at 100 nM concentration in exploratory binding assays (displaced less than half of radioligand)) |
| Oc1cccc2c1O[C@H]1CN(C[C@@H]3C[C@@H]3c3ccccc3)[C@H]3CCC[C@@]21C3 [(-)-18, (3S,6aR,11aR)-2-(((1R,2S)-2-Phenylcyclopropyl)methyl)-1,3,4,5,6,11a-hexahydro-2H-3,6a-methanobenzofuro[2,3-c]azocin-10-ol] |  |  |  | Ki ([2]; [3H]DADLE, whole rat brains excluding cerebellum, read-out: DOR Binding (Ki ± SEM)): 89 ± 13.4 nM; Ki [3]: 109 ± 16 nM |
| Oc1cccc2c1O[C@@H]1CN(C[C@H]3C[C@H]3c3ccccc3)[C@@H]3CCC[C@]21C3 (as salt: HCl) [(+)-18, (3R,6aS,11aS)-2-(((1S,2R)-2-Phenylcyclopropyl)methyl)-1,3,4,5,6,11a-hexahydro-2H-3,6a-methanobenzofuro[2,3-c]azocin-10-ol] |  | 204.4 to 208.5 |  |  |
| Oc1cccc2c1O[C@@H]1CN(C[C@@H]3C[C@@H]3c3ccccc3)[C@@H]3CCC[C@]21C3 (as salt: HBr) [(-)-19, (3R,6aS,11aS)-2-(((1R,2S)-2-phenylcyclopropyl)methyl)-1,3,4,5,6,11a-hexahydro-2H-3,6a-methanobenzofuro[2,3-c]azocin-10-ol] |  | 193.3 to 198.3 |  |  |
| Oc1cccc2c1O[C@@H]1CN(C[C@@H]3C[C@H]3c3ccccc3)[C@@H]3CCC[C@]21C3 [(-)-17, (3R,6aS,11aS)-2-(((1R,2R)-2-Phenylcyclopropyl)methyl)-1,3,4,5,6,11a-hexahydro-2H-3,6a-methanobenzofuro[2,3-c]azocin-10-ol] | NT (NT = not tested—inactive (<50% activity at 100 nM concentration in exploratory binding assays (displaced less than half of radioligand)) |  | NT (NT = not tested—inactive (<50% activity at 100 nM concentration in exploratory binding assays (displaced less than half of radioligand)) | MOR Binding, activity in exploratory binding assays [1]: NT (NT = not tested—inactive (<50% activity at 100 nM concentration in exploratory binding assays (displaced less than half of radioligand)) |
| Oc1cccc2c1O[C@H]1CN(C[C@H]3C[C@@H]3c3ccccc3)[C@H]3CCC[C@@]21C3 (as salt: HCl) [(+)-17, (3S,6aR,11aR)-2-(((1S,2S)-2-Phenylcyclopropyl)methyl)-1,3,4,5,6,11a-hexahydro-2H-3,6a-methanobenzofuro[2,3-c]azocin-10-ol] |  | 187.2 to 192.2 |  |  |
| Oc1cccc2c1O[C@H]1CN(C[C@@H]3C[C@@H]3c3ccccc3)[C@H]3CCC[C@@]21C3 (as salt: HCl) [(-)-18, (3S,6aR,11aR)-2-(((1R,2S)-2-Phenylcyclopropyl)methyl)-1,3,4,5,6,11a-hexahydro-2H-3,6a-methanobenzofuro[2,3-c]azocin-10-ol] |  | 193.9 to 198.5 |  |  |
| Oc1cccc2c1O[C@H]1CN(C[C@@H]3C[C@H]3c3ccccc3)[C@H]3CCC[C@@]21C3 [(-)-16, (3S,6aR,11aR)-2-(((1R,2R)-2-Phenylcyclopropyl)methyl)-1,3,4,5,6,11a-hexahydro-2H-3,6a-methanobenzofuro[2,3-c]azocin-10-ol] | NT (NT = not tested—inactive (<50% activity at 100 nM concentration in exploratory binding assays (displaced less than half of radioligand)) |  | NT (NT = not tested—inactive (<50% activity at 100 nM concentration in exploratory binding assays (displaced less than half of radioligand)) | Ki [1]: 109 ± 5.5 nM |
| Oc1cccc2c1O[C@@H]1CN(C[C@@H]3C[C@H]3c3ccccc3)[C@@H]3CCC[C@]21C3 (as salt: HCl) [(-)-17, (3R,6aS,11aS)-2-(((1R,2R)-2-Phenylcyclopropyl)methyl)-1,3,4,5,6,11a-hexahydro-2H-3,6a-methanobenzofuro[2,3-c]azocin-10-ol] |  | 208.2 to 213.2 |  |  |
| Oc1cccc2c1O[C@@H]1CN(C[C@@H]3C[C@@H]3c3ccccc3)[C@@H]3CCC[C@]21C3 [(-)-19, (3R,6aS,11aS)-2-(((1R,2S)-2-phenylcyclopropyl)methyl)-1,3,4,5,6,11a-hexahydro-2H-3,6a-methanobenzofuro[2,3-c]azocin-10-ol] | NT (NT = not tested—inactive (<50% activity at 100 nM concentration in exploratory binding assays (displaced less than half of radioligand)) |  | NT (NT = not tested—inactive (<50% activity at 100 nM concentration in exploratory binding assays (displaced less than half of radioligand)) | MOR Binding, activity in exploratory binding assays [1]: NT (NT = not tested—inactive (<50% activity at 100 nM concentration in exploratory binding assays (displaced less than half of radioligand)) |
| Oc1cccc2c1O[C@H]1CN(C[C@H]3C[C@H]3c3ccccc3)[C@H]3CCC[C@@]21C3 (as salt: HCl) [(+)-19, (3S,6aR,11aR)-2-(((1S,2R)-2-Phenylcyclopropyl)methyl)-1,3,4,5,6,11a-hexahydro-2H-3,6a-methanobenzofuro[2,3-c]azocin-10-ol] |  | 183.1 to 187.7 |  |  |
| Oc1cccc2c1O[C@@H]1CN(C[C@H]3C[C@H]3c3ccccc3)[C@@H]3CCC[C@]21C3 [(+)-18, (3R,6aS,11aS)-2-(((1S,2R)-2-Phenylcyclopropyl)methyl)-1,3,4,5,6,11a-hexahydro-2H-3,6a-methanobenzofuro[2,3-c]azocin-10-ol] | NT (NT = not tested—inactive (<50% activity at 100 nM concentration in exploratory binding assays (displaced less than half of radioligand)) |  | NT (NT = not tested—inactive (<50% activity at 100 nM concentration in exploratory binding assays (displaced less than half of radioligand)) | MOR Binding, activity in exploratory binding assays [1]: NT (NT = not tested—inactive (<50% activity at 100 nM concentration in exploratory binding assays (displaced less than half of radioligand)) |
| Oc1cccc2c1O[C@@H]1CN(C[C@H]3C[C@@H]3c3ccccc3)[C@@H]3CCC[C@]21C3 (as salt: HCl) [(+)-16, (3R,6aS,11aS)-2-(((1S,2S)-2-Phenylcyclopropyl)methyl)-1,3,4,5,6,11a-hexahydro-2H-3,6a-methanobenzofuro[2,3-c]azocin-10-ol] |  | 246.6 to 251.6 |  |  |
